Data on one molecule can be found in patent US8551721B2, “Bioluminescent detection of cyanohydroxy benzothiazole compounds” (Promega Corporation, priority 2008, dated 2013).

Assay type in all cases: biochemical
In series [1] the test system is endogenously expressed UGT isozymes in mammalian microsomes. The experiment in a line: Utilization of compounds by mammalian microsomes. Particulars: 15 minutes at 37° C., 0.1 mg/mL mammalian microsomes or 0.2 mg/mL Supersomes, 50 μM compound. The method, then: The invention includes a method of determining activity of the uridine 5′-diphospho-glucuronosyltransferase (UDP-glucuronosyltransferase, or UGT) family enzymes in vitro. […] Following the UGT enzyme reaction, an equal volume of P450-Glo Luciferin Detection Reagent (Promega) containing 15-30 mM D-cysteine-HCl.H2O (Sigma) was added and the plate was mixed and incubated at room temperature, typically for 20-30 minutes. P450-Glo Luciferin Detection Reagent can be prepared by dissolving a vial of Promega Luciferin Detection Reagent (Promega Part #V859B) with a vial of Promega P450-Glo Buffer (Promega Part #V865B).
During this incubation, the cysteine reacts with the cyanobenzathiozole substrate to yield a D-luciferin derivative. […] Therefore, activity of the UGT enzyme can be measured by analyzing the difference (lower or no output) in relative light units (RLU) of a sample in which glucuronidation occurs compared to a sample that was run under the same conditions with no added UDPGA cofactor.
Tissue microsomes were obtained from Xenotech LLC or BD Gentest.

A further series concerns the target T1, UGT 2B7 (Homo sapiens, UniProt P16662).
T1 construct: purchased BD Gentest; host or cells: insect cells (microsomes)
T1 sequence (P16662 24-529): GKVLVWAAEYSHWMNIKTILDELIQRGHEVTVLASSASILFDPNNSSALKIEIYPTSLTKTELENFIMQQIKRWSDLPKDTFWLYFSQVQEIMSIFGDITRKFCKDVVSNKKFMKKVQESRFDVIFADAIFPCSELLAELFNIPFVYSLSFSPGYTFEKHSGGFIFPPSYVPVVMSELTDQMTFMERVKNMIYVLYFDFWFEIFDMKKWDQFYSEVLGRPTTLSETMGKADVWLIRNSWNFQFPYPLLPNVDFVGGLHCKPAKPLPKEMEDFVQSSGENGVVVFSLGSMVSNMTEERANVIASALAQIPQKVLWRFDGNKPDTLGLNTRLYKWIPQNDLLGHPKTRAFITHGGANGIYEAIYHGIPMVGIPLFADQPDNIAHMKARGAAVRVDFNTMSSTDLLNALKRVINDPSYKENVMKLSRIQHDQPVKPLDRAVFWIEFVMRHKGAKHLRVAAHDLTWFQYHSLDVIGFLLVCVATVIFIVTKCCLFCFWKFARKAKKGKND
Kind of series: Assay variability (Z') with UGT 2B7 Supersomes and compound 3138. Particulars: 0.2 mg/mL Supersomes, 30 μM compound 3138, plus or minus 5 mM UDPGA, 12 samples each, 120 mM at 37° C. The method, then: (§1) Assay variability was determined using the activity data and standard deviations of 12 separate minus UDPGA and plus UDPGA samples. All reactions contained 50 mM TES, pH 7.5, 8 mM MgCl2, 25 μg/mL alamethicin, 0.2 mg/mL UGT 1A1 or 2B7 Supersomes™, and 30 μM compound 3138, plus or minus 5 mM UDPGA. After […] at 37° C., 40 μl, of LDR plus 20 mM D-cysteine was added to each 40 μl, reaction and mixed. After 20 minutes at room temperature, RLU were read on a luminometer.
(§2) Z′ values were calculated using the equation outlined below.
(§3) Robust assay systems typically display Z′ values of 0.5 or higher. The calculated Z′ value for UGT 1A1 was 0.83. The calculated Z′ value for UGT 2B7 under the same conditions was 0.67.

The next series concerns the target T2, UGT 1A1 (Homo sapiens, UniProt P22309).
T2 construct: purchased BD Gentest; host or cells: insect cells (microsomes)
T2 sequence (P22309 26-533): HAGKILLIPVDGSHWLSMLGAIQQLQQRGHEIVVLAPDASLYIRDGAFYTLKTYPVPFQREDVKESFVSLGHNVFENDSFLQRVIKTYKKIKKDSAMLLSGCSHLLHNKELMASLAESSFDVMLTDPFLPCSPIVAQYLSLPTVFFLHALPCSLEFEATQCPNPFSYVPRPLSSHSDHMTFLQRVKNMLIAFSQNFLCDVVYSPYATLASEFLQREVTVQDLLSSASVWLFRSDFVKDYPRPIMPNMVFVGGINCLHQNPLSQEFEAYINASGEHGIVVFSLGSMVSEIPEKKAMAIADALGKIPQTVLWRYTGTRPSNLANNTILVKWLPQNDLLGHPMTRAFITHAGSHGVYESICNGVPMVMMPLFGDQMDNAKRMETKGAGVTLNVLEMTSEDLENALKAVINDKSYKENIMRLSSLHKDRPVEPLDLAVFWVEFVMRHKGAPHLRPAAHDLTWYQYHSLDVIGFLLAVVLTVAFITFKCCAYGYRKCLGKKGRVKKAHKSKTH
Kind of series: Assay variability (Z') with UGT 1A1 Supersomes and compound 3138. Particulars: 0.2 mg/mL Supersomes, 30 μM compound 3138, plus or minus 5 mM UDPGA, 12 samples each, 120 mM at 37° C. The method, then:
as §1, §2, §3

With `Cc1cc(O)cc2sc(C#N)nc12` [compound 3138], the “utilization of compound 3138 by tissue microsomes compared with control 1A1 Supersomes” value in series [1] is “All tissues tested utilized much more compound 3138 than the control 1A1 Supersomes”. In addition, the “calculated Z′ value for UGT 2B7” value at UGT 2B7 is 0.67. For the same molecule, on UGT 1A1, the “calculated Z′ value for UGT 1A1” value is 0.83.
